“And” between values parts separate entries of the source, which are not always exact repeats. Equal entries are not always repeated.
Legend:
Experiment in all cases: radiometric filter-binding kinase assay, Kinase HotSpot
Conditions in all cases: compound 0.5 µM; ATP 10 µM
SGK2 (human) = SGK2 (human) (UniProt Q9HBY8)
PNCK (human) = PNCK (human) (UniProt Q6P2M8)
JAK3 JH1 JH2 (human) = JAK3 JH1 JH2 (human) (UniProt P52333)
MAP3K8 (human) = MAP3K8 (human) (UniProt P41279)
DAPK3 (human) = DAPK3 (human) (UniProt O43293)
BMX (human) = BMX (human) (UniProt P51813)
GRK7 (human) = GRK7 (human) (UniProt Q8WTQ7)
EPHA5 (human) = EPHA5 (human) (UniProt P54756)
DMPK (human) = DMPK (human) (UniProt Q09013)
PRKG1 (human) = PRKG1 (human) (UniProt Q13976)
MYLK (human) = MYLK (human) (UniProt Q15746)
LYN (human) = LYN (human) (UniProt P07948)
FGFR2 (human) = FGFR2 (human) (UniProt P21802)
MST1R (human) = MST1R (human) (UniProt Q04912)
SRC (human) = SRC (human) (UniProt P12931)
EPHB4 (human) = EPHB4 (human) (UniProt P54760)
RPS6KA2 KD1 KD2 (human) = RPS6KA2 KD1 KD2 (human) (UniProt Q15349)
RPS6KA4 KD2 (human) = RPS6KA4 KD2 (human) (UniProt O75676)
MAPK12 (human) = MAPK12 (human) (UniProt P53778)
IRAK4 (human) = IRAK4 (human) (UniProt Q9NWZ3)
PKN1 (human) = PKN1 (human) (UniProt Q16512)
GSK3B (human) = GSK3B (human) (UniProt P49841)
PLK1 (human) = PLK1 (human) (UniProt P53350)
TYRO3 (human) = TYRO3 (human) (UniProt Q06418)
STK10 (human) = STK10 (human) (UniProt O94804)
GRK4 (human) = GRK4 (human) (UniProt P32298)
FER (human) = FER (human) (UniProt P16591)
MLTK (human) = MLTK (human) (UniProt Q9NYL2)
STK3 (human) = STK3 (human) (UniProt Q13188)
CHEK2 (human) = CHEK2 (human) (UniProt O96017)
BTK (human) = BTK (human) (UniProt Q06187)
NEK3 (human) = NEK3 (human) (UniProt P51956)
DYRK2 (human) = DYRK2 (human) (UniProt Q92630)
FGFR4 (human) = FGFR4 (human) (UniProt P22455)
AURKA (human) = AURKA (human) (UniProt O14965)
CDK6 CCND3 (human) = CDK6 CCND3 (human) (UniProt P30281+Q00534)
CSNK2A1 (human) = CSNK2A1 (human) (UniProt P68400)
HIPK1 (human) = HIPK1 (human) (UniProt Q86Z02)
MARK2 (human) = MARK2 (human) (UniProt Q7KZI7)
CSK (human) = CSK (human) (UniProt P41240)

Sequence of PRKG1 (human) (Q13976 whole entry, looked up): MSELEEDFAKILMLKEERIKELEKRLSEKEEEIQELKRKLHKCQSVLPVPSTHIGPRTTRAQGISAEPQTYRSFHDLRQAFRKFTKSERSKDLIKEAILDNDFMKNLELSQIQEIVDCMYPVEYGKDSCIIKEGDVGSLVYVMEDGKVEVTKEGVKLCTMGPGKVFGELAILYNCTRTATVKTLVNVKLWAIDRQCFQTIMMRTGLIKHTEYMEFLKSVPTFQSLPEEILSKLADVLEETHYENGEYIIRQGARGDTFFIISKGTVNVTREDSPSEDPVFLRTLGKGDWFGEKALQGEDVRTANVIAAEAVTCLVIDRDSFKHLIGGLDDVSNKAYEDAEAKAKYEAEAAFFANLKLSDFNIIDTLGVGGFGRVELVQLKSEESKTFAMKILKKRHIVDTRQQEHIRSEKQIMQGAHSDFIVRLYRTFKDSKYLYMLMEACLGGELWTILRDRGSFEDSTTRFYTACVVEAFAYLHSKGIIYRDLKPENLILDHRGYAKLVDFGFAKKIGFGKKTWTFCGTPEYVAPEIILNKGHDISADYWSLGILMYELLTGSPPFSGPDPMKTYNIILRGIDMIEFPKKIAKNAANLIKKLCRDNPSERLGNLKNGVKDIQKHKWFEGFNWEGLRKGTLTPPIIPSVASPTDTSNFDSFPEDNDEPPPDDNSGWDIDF
Sequence of LYN (human) (P07948 whole entry, looked up): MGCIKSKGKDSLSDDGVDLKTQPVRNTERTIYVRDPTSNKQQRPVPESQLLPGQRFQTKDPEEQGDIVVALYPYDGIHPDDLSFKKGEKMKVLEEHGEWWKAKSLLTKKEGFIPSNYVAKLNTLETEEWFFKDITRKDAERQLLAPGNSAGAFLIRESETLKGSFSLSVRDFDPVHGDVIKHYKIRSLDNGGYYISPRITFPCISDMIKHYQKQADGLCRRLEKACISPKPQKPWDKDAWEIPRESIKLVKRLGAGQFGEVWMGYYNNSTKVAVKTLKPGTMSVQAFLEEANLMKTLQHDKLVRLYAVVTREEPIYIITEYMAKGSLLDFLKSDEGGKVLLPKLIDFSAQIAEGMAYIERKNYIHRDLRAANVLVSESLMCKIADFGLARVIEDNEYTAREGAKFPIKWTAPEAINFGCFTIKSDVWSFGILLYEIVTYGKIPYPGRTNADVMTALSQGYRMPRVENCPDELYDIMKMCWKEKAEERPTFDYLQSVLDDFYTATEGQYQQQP
Sequence of DYRK2 (human) (Q92630 whole entry, looked up): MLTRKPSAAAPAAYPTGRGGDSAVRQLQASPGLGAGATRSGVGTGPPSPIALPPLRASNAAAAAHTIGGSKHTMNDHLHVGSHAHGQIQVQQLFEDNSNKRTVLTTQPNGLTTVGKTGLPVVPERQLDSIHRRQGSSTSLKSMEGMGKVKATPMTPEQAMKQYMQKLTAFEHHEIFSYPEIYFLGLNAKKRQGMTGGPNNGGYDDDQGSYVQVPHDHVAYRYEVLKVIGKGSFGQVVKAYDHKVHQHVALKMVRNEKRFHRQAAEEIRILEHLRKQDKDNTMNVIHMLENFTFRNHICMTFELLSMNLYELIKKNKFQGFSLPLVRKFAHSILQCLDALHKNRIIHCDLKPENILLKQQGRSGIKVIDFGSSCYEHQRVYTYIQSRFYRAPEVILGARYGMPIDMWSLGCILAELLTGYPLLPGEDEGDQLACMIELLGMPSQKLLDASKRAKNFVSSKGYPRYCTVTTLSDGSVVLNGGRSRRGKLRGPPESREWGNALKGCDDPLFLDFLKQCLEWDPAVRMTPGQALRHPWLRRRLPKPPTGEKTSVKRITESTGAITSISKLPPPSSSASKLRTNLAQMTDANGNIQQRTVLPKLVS
Sequence of TYRO3 (human) (Q06418 whole entry, looked up): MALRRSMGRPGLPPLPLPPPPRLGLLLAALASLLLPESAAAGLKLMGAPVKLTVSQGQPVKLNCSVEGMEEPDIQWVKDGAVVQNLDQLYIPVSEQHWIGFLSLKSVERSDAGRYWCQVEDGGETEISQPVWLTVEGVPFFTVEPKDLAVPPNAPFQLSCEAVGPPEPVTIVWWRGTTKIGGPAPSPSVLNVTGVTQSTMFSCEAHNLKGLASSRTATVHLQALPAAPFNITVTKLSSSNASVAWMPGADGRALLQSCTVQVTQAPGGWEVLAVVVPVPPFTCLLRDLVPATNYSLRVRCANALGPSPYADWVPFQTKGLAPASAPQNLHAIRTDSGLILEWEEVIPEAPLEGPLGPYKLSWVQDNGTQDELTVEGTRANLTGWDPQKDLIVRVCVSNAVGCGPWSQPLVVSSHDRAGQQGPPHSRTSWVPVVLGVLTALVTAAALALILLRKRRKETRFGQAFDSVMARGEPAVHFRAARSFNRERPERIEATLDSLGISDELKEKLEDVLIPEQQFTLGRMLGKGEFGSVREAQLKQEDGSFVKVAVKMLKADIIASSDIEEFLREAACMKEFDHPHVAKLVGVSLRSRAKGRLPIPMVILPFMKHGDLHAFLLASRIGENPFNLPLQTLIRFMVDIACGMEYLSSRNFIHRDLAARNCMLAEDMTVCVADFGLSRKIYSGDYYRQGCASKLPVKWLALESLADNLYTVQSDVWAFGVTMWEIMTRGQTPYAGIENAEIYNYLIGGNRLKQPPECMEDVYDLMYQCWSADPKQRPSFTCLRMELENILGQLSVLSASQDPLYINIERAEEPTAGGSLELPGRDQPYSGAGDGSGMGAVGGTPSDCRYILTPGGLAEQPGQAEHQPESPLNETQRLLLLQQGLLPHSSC
Sequence of STK10 (human) (O94804 whole entry, looked up): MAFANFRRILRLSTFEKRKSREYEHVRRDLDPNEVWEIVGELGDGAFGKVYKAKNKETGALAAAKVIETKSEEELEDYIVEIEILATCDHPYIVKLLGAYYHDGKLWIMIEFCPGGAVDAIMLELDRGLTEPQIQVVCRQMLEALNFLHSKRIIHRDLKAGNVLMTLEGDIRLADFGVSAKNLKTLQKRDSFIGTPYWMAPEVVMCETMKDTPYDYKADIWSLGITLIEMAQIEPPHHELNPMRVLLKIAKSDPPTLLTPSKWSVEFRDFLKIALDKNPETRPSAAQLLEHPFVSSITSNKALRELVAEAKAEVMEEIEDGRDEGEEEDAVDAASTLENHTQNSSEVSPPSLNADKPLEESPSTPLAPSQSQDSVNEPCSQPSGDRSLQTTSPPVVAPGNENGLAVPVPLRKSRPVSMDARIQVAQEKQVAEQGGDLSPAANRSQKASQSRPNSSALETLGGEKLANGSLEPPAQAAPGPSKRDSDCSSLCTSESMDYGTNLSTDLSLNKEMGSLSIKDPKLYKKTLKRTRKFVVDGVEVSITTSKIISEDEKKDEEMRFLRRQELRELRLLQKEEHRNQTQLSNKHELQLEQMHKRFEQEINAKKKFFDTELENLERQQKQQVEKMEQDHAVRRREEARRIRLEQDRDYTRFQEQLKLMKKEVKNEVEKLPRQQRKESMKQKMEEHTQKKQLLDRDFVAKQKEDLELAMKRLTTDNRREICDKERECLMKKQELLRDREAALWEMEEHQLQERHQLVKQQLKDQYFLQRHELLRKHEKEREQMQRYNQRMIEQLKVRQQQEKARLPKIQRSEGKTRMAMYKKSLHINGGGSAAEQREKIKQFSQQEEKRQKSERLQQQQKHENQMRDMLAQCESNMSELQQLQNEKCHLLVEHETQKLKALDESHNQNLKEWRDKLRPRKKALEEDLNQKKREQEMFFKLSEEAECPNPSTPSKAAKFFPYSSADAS
Sequence of AURKA (human) (O14965 whole entry, looked up): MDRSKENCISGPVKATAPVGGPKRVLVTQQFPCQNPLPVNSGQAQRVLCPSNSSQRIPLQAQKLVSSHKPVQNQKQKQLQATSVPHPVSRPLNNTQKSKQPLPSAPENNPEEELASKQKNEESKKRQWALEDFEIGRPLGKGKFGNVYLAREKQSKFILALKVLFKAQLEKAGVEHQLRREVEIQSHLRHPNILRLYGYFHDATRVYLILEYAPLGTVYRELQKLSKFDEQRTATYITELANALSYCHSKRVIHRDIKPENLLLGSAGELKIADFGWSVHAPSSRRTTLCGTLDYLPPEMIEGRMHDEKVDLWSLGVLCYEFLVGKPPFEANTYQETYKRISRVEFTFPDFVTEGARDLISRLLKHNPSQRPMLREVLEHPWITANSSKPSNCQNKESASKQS
Sequence of NEK3 (human) (P51956 whole entry, looked up): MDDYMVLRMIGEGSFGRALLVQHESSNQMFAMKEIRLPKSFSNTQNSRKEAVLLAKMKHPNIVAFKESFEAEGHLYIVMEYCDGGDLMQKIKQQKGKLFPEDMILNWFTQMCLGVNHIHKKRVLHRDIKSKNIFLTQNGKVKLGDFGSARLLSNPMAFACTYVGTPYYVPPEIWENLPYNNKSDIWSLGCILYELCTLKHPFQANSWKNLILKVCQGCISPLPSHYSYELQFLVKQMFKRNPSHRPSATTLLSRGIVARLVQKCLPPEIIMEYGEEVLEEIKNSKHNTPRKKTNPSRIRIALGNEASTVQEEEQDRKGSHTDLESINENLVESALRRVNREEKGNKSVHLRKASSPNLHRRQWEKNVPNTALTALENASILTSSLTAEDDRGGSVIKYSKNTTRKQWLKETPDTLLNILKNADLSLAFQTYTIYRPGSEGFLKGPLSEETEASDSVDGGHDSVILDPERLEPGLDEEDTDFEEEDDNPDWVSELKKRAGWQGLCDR
Sequence of CSNK2A1 (human) (P68400 whole entry, looked up): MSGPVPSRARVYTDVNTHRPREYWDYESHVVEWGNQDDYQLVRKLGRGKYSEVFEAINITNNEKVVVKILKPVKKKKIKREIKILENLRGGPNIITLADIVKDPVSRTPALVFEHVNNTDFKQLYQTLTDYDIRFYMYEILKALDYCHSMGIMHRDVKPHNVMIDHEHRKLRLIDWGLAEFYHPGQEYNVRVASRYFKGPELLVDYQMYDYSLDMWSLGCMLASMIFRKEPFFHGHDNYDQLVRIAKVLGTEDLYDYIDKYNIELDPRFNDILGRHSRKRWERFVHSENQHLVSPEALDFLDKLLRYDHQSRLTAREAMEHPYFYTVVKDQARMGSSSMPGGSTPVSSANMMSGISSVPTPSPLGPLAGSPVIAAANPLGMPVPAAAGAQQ

COc1ccc(COc2ccc(Cc3cnc(N)nc3N)cc2OC)cc1 showed a residual activity (SGK2 (human)) of 97.5%, a residual activity (PNCK (human)) of 98.4% and a residual activity (JAK3 JH1 JH2 (human)) of 95.9%. It also gave a residual activity (MAP3K8 (human)) of 98.4%, a residual activity (DAPK3 (human)) of 104% and a residual activity (BMX (human)) of 93.4%. The residual activity (GRK7 (human)) was 104%, the residual activity (EPHA5 (human)) was 111% and the residual activity (DMPK (human)) was 101%. For the same molecule, the residual activity (PRKG1 (human)) was 91.7% and 98.3%, the residual activity (MYLK (human)) was 95.7% and the residual activity (LYN (human)) was 98.1% and 99.9%. The residual activity (FGFR2 (human)) was 102%, the residual activity (MST1R (human)) was 104% and the residual activity (SRC (human)) was 97.9%. For the same molecule, the residual activity (EPHB4 (human)) was 90.5%, the residual activity (RPS6KA2 KD1 KD2 (human)) was 105% and the residual activity (RPS6KA4 KD2 (human)) was 107%. For the same molecule, the residual activity (MAPK12 (human)) was 102%, the residual activity (IRAK4 (human)) was 110% and the residual activity (PKN1 (human)) was 101%. It also gave a residual activity (GSK3B (human)) of 97.8%, a residual activity (PLK1 (human)) of 97.1% and a residual activity (TYRO3 (human)) of 110%. For the same molecule, the residual activity (STK10 (human)) was 100%, the residual activity (GRK4 (human)) was 106% and the residual activity (FER (human)) was 93.4%. It also gave a residual activity (MLTK (human)) of 97.4%, a residual activity (STK3 (human)) of 98.4% and a residual activity (CHEK2 (human)) of 107%. The residual activity (BTK (human)) was 104%, the residual activity (NEK3 (human)) was 98.1% and the residual activity (DYRK2 (human)) was 105%. The residual activity (FGFR4 (human)) was 99.7%, the residual activity (AURKA (human)) was 105% and the residual activity (CDK6 CCND3 (human)) was 94.5%. It also gave a residual activity (CSNK2A1 (human)) of 105% and a residual activity (HIPK1 (human)) of 110%.

Nc1cccc(-c2cc3c(Oc4cccc(O)c4)ncnc3[nH]2)c1 showed a residual activity (SGK2 (human)) of 96.2%, a residual activity (PNCK (human)) of 98.2% and a residual activity (JAK3 JH1 JH2 (human)) of 123%. For the same molecule, the residual activity (MAP3K8 (human)) was 99.6%, the residual activity (DAPK3 (human)) was 94% and the residual activity (MARK2 (human)) was 79%. The residual activity (BMX (human)) was 24.3%, the residual activity (GRK7 (human)) was 102% and the residual activity (EPHA5 (human)) was 41.7%. It also gave a residual activity (DMPK (human)) of 95.2%, a residual activity (PRKG1 (human)) of 103% and a residual activity (MYLK (human)) of 81.7%. For the same molecule, the residual activity (LYN (human)) was 11.1% and 21.4%, the residual activity (FGFR2 (human)) was 46.1% and the residual activity (MST1R (human)) was 103%. It also gave a residual activity (SRC (human)) of 2.07%, a residual activity (RPS6KA2 KD1 KD2 (human)) of 91.5% and a residual activity (RPS6KA4 KD2 (human)) of 103%. The residual activity (MAPK12 (human)) was 88.6%, the residual activity (IRAK4 (human)) was 88.2% and the residual activity (PKN1 (human)) was 105%. The residual activity (GSK3B (human)) was 48.1%, the residual activity (PLK1 (human)) was 104% and the residual activity (TYRO3 (human)) was 52.1%. It also gave a residual activity (STK10 (human)) of 45.8%, a residual activity (GRK4 (human)) of 94.7% and a residual activity (FER (human)) of 44%. It also gave a residual activity (MLTK (human)) of 13.9%, a residual activity (STK3 (human)) of 109% and a residual activity (CHEK2 (human)) of 75.8%. It also gave a residual activity (BTK (human)) of 33.6%, a residual activity (NEK3 (human)) of 57.5% and a residual activity (DYRK2 (human)) of 76.9%. It also gave a residual activity (CSK (human)) of 43.6%, a residual activity (FGFR4 (human)) of 45.1% and a residual activity (AURKA (human)) of 78.2%. It also gave a residual activity (CDK6 CCND3 (human)) of 91.3%, a residual activity (CSNK2A1 (human)) of 96.8% and a residual activity (HIPK1 (human)) of 82.7%.

Reference: the kinase profiling compilation of Christmann-Franck et al. (2016)
